In the assay the target is recombinant human AMPK complex 1 (containing α1β1γ1) (Homo sapiens, UniProt Q13131+Q9Y478). The experiment in a line: […] (in vitro AMPK activation assay). In kind it is biochemical. The conditions noted are these: recombinant human AMPK complex 1 (α1β1γ1); basal activity subtracted; read-out: % Maximum AMP Activation of human AMPK Complex 1.
Chain of recombinant human AMPK complex 1 (containing α1β1γ1) (Q13131 whole entry): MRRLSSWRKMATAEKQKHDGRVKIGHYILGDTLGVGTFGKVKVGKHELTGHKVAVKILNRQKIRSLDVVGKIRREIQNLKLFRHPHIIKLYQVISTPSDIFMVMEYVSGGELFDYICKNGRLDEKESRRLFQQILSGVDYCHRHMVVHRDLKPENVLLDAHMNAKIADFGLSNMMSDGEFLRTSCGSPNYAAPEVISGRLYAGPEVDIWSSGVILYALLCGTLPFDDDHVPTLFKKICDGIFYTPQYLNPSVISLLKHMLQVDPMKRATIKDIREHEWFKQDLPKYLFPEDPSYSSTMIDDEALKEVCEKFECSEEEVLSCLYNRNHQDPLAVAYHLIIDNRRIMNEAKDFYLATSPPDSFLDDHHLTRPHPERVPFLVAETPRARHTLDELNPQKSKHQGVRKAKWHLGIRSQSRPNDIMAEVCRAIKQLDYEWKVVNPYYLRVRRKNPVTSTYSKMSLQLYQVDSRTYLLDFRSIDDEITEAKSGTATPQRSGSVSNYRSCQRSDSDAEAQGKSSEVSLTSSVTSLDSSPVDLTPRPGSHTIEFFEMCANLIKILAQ
Chain of recombinant human AMPK complex 1 (containing α1β1γ1) (Q9Y478 whole entry): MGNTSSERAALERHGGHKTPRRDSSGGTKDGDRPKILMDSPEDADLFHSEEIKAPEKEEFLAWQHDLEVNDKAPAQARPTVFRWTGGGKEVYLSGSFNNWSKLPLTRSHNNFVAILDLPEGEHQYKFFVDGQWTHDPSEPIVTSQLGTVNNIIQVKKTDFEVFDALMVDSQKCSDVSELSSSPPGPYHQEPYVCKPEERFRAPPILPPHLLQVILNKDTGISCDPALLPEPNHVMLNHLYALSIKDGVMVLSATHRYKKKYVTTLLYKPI
Chain of recombinant human AMPK complex 1 (containing α1β1γ1) (P54619 whole entry partner): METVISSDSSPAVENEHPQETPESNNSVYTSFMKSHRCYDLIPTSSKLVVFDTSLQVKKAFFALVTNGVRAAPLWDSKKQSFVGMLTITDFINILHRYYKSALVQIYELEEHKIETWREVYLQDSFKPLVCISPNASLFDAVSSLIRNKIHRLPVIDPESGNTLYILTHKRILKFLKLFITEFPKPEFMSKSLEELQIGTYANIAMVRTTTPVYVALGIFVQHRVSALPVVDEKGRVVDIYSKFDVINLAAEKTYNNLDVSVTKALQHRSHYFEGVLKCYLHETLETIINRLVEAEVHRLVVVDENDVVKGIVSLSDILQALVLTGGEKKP

For `Cc1ccc(Oc2nc3cc(C#Cc4ccc(OC(F)(F)F)cc4)c(Cl)cc3[nH]2)cc1C(=O)O` [Example 95, 5-[6-Chloro-5-(4-trifluoromethoxy-phenylethynyl)-1H-benzoimidazol-2-yloxy]-2-methyl-benzoic acid], the Emax is above 80%.
The figure for `Cc1ccccc1C#Cc1cc2nc(Oc3ccc(C)c(C(=O)O)c3)[nH]c2cc1Cl` [Example 96, 5-(6-Chloro-5-o-tolylethynyl-1H-benzoimidazol-2-yloxy)-2-methyl-benzoic acid] is above 80%; for `Cc1cccc(C#Cc2cc3nc(Oc4ccc(C)c(C(=O)O)c4)[nH]c3cc2Cl)c1` [Example 97, 5-(6-Chloro-5-m-tolylethynyl-1H-benzoimidazol-2-yloxy)-2-methyl-benzoic acid] it is above 80%.
`COC(=O)c1cc(Oc2nc3cc(C#Cc4ccc(OC(F)(F)F)cc4)c(Cl)cc3[nH]2)ccc1C` [Example 98, 5-[6-Chloro-5-(4-trifluoromethoxy-phenylethynyl)-1H-benzoimidazol-2-yloxy]-2-methyl-benzoic acid methyl ester]: the Emax is above 80%.
Regarding `COC(=O)c1cc(Oc2nc3cc(C#Cc4ccccc4C)c(Cl)cc3[nH]2)ccc1C` [Example 99, 5-(6-Chloro-5-o-tolylethynyl-1H-benzoimidazol-2-yloxy)-2-methyl-benzoic acid methyl ester], the Emax was above 80%.
The result for `COC(=O)c1cc(Oc2nc3cc(C#Cc4cccc(C)c4)c(Cl)cc3[nH]2)ccc1C` [Example 100, 5-(6-Chloro-5-m-tolylethynyl-1H-benzoimidazol-2-yloxy)-2-methyl-benzoic acid methyl ester] reads above 80%; that for `N#Cc1ccc(Oc2nc3cc(-c4ccc(-c5ccccc5)cc4)c(Cl)cc3[nH]2)cc1C#N` [Example 101, 4-(5-Biphenyl-4-yl-6-chloro-1H-benzoimidazol-2-yloxy)-phthalonitrile], above 80%; that for `Cc1ccc(Oc2nc3cc(-c4ccc(-c5ccc(C(=O)O)cc5)cc4)c(Cl)cc3[nH]2)cc1C(=O)O` [Example 102, 4′-[2-(3-Carboxy-4-methyl-phenoxy)-6-chloro-1H-benzoimidazol-5-yl]-biphenyl-4-carboxylic acid], above 80%.
Consider `Cc1ccc(Oc2nc3cc(-c4ccc(-c5ccc(C#N)cc5)cc4)c(Cl)cc3[nH]2)cc1C(=O)O` [Example 103, 5-[6-Chloro-5-(4′-cyano-biphenyl-4-yl)-1H-benzoimidazol-2-yloxy]-2-methyl-benzoic acid], for which the Emax is above 80%.
Take `Cc1ccc(Oc2nc3cc(-c4ccc(-c5ccc(O)cc5)cc4)c(Cl)cc3[nH]2)cc1C(=O)O` [Example 104, 5-[6-Chloro-5-(4-hydroxy-biphenyl-4-yl)-1H-benzoimidazol-2-yloxy]-2-methyl-benzoic acid]: the Emax is above 80%.
`Cc1ccc(Oc2nc3cc(-c4ccc(-c5ccc(F)cc5)cc4)c(Cl)cc3[nH]2)cc1C(=O)O` [Example 105, 5-[6-Chloro-5-(4′-fluoro-biphenyl-4-yl)-1H-benzoimidazol-2-yloxy]-2-methyl-benzoic acid]: the Emax is above 80%.
`COc1ccccc1C#Cc1cc2nc(Oc3ccc(C)c(C(=O)O)c3)[nH]c2cc1Cl` [Example 106, 5-[6-Chloro-5-(2-methoxy-phenylethynyl)-1H-benzoimidazol-2-yloxy]-2-methyl-benzoic acid]: the Emax was above 80%.
Turning to `COC(=O)c1cc(Oc2nc3cc(C#Cc4ccccc4OC)c(Cl)cc3[nH]2)ccc1C` [Example 107, 5-[6-Chloro-5-(2-methoxy-phenylethynyl)-1H-benzoimidazol-2-yloxy]-2-methyl-ester], the Emax is above 80%.
Turning to `COc1cccc(C#Cc2cc3nc(Oc4ccc(C)c(C(=O)O)c4)[nH]c3cc2Cl)c1` [Example 108, 5-[6-Chloro-5-(3-methoxy-phenylethynyl)-1H-benzoimidazol-2-yloxy]-2-methyl-benzoic acid], the Emax is above 80%.
The figure for `COC(=O)c1cc(Oc2nc3cc(C#Cc4cccc(OC)c4)c(Cl)cc3[nH]2)ccc1C` [Example 109, 5-[6-Chloro-5-(3-methoxy-phenylethynyl)-1H-benzoimidazol-2-yloxy]-2-methyl-benzoic acid methyl ester] is above 80%; for `Cc1ccc(Oc2nc3cc(C#Cc4cccc(Cl)c4)c(Cl)cc3[nH]2)cc1C(=O)O` [Example 110, 5-[6-Chloro-5-(3-chloro-phenylethynyl)-1H-benzoimidazol-2-yloxy]-2-methyl-benzoic acid] it is above 80%; for `Cc1ccc(Oc2nc3cc(C#Cc4cccc(F)c4)c(Cl)cc3[nH]2)cc1C(=O)O` [Example 111, 5-[6-Chloro-5-(3-fluoro-phenylethynyl)-1H-benzoimidazol-2-yloxy]-2-methyl-benzoic acid] it is above 80%.
As to `Cc1ccc(Oc2nc3cc(C#Cc4ccc(Cl)cc4)c(Cl)cc3[nH]2)cc1C(=O)O` [Example 112, 5-[6-Chloro-5-(4-chloro-phenylethynyl)-1H-benzoimidazol-2-yloxy]-2-methyl-benzoic acid], the Emax is above 80%.
In the case of `Cc1ccc(Oc2nc3cc(C#Cc4ccc(F)cc4)c(Cl)cc3[nH]2)cc1C(=O)O` [Example 113, 5-[6-Chloro-5-(4-fluoro-phenylethynyl)-1H-benzoimidazol-2-yloxy]-2-methyl-benzoic acid], the Emax is above 80%.
`COC(=O)c1cc(Oc2nc3cc(C#Cc4ccc(F)cc4)c(Cl)cc3[nH]2)ccc1C` [Example 114, 5-[6-Chloro-5-(4-fluoro-phenylethynyl)-1H-benzoimidazol-2-yloxy]-2-methyl-benzoic acid methyl ester]: the Emax was above 80%.
On to `Cc1ccc(Oc2nc3cc(C#Cc4ccccc4Cl)c(Cl)cc3[nH]2)cc1C(=O)O` [Example 115, 5-[6-Chloro-5-(2-chloro-phenylethynyl)-1H-benzoimidazol-2-yloxy]-2-methyl-benzoic acid], for which the Emax was above 80%.
On to `Cc1ccc(Oc2nc3cc(C#Cc4ccc(O)cc4)c(Cl)cc3[nH]2)cc1C(=O)O` [Example 116, 5-[6-Chloro-5-(4-hydroxy-phenylethynyl)-1H-benzoimidazol-2-yloxy]-2-methyl-benzoic acid], for which the Emax is above 80%.
As to `COC(=O)c1cc(Oc2nc3cc(C#Cc4ccc(OC(C)=O)cc4)c(Cl)cc3[nH]2)ccc1C` [Example 117, 5-[5-(4-Acetoxy-phenylethynyl)-6-chloro-1H-benzoimidazol-2-yloxy]-2-methyl-benzoic acid methyl ester], the Emax was above 80%.
`COC(=O)c1cc(Oc2nc3cc(C#Cc4ccccc4F)c(Cl)cc3[nH]2)ccc1C` [Example 119, 5-[6-Chloro-5-(2-fluoro-phenylethynyl)-1H-benzoimidazol-2-yloxy]-2-methyl-benzoic acid methyl ester]: the Emax is above 80%.
On to `Cc1ccc(Oc2nc3cc(C#Cc4ccc(-c5cnco5)cc4)c(Cl)cc3[nH]2)cc1C(=O)O` [Example 120, 5-[6-Chloro-5-(4-oxazol-5-yl-phenylethynyl)-1H-benzoimidazol-2-yloxy]-2-methyl-benzoic acid], for which the Emax was above 80%.
The result for `COc1ccc(C#Cc2cc3nc(Oc4ccc(C)c(C(=O)O)c4)[nH]c3cc2Cl)cc1` [Example 121, 5-[6-Chloro-5-(4-methoxy-phenylethynyl)-1H-benzoimidazol-2-yloxy]-2-methyl-benzoic acid] reads above 80%.
